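Grown in 96-well plates, cells were treated for 48 hours with each compound at five concentrations. Insufficient inhibition: endpoint recorded as highest concentration tested. At the GI50, growth is halved. TGI is the concentration that stops growth completely.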
Key:
Assay in all cases: growth of human tumour cells (NCI), 48 h
[1] = tested on: U251 CNS
[2] = tested on: NCI-H226 lung
[3] = tested on: ACHN renal
[4] = tested on: SW-620 colon
[5] = tested on: MOLT-4 leukemia
[6] = tested on: NCI-H460 lung
[7] = tested on: UO-31 renal
[8] = tested on: UACC-62 melanoma
[9] = tested on: SK-MEL-2 melanoma
[10] = tested on: RPMI-8226 leukemia

SMILES: C[C@]12CC[C@H](O)CC1=CC[C@@H]1C2CC[C@]2(C)c3nn(-c4ccc(F)cc4)nc3CC12 (stereo partly specified)
- TGI [1]: > 100 µM
- TGI [2]: > 100 µM
- TGI [3]: > 100 µM
- TGI [4]: > 100 µM
- TGI [5]: > 100 µM
- TGI [6]: > 100 µM
- TGI [7]: > 100 µM
- TGI [8]: > 100 µM

SMILES: COc1ccccc1C1=C2C(=O)N(C)C(c3ccccc3OC)=C2C(=O)N1C
- TGI [1]: > 100 µM
- TGI [2]: > 100 µM
- TGI [3]: > 100 µM
- TGI [4]: > 100 µM
- TGI [5]: > 100 µM
- TGI [6]: > 100 µM
- TGI [7]: > 100 µM
- TGI [8]: > 100 µM

SMILES: O=C(Nc1ccc(-n2cc(-c3ccncc3)c(-c3ccc(Cl)c(O)c3)n2)cc1)Nc1cc(C(F)(F)F)cc(C(F)(F)F)c1
- GI50 [1]: 1510 nM
- TGI [1]: 2.98 µM
- GI50 [9]: 1800 nM
- TGI [9]: 3.45 µM
- GI50 [2]: 2.45 µM
- TGI [2]: 10.6 µM
- GI50 [3]: 2.92 µM
- TGI [3]: 10.3 µM
- GI50 [4]: 2240 nM
- TGI [4]: 4.44 µM
- GI50 [5]: 1950 nM
- TGI [5]: 7.37 µM
- GI50 [6]: 1920 nM
- TGI [6]: 3.85 µM
- GI50 [7]: 1.55 µM
- TGI [7]: 3.93 µM
- GI50 [8]: 2230 nM
- TGI [8]: 5.37 µM

SMILES: N/N=C(\CC1OC(=O)c2ccccc21)c1ccco1 (stereo unspecified)
- TGI [9]: > 100 µM
- TGI [2]: > 100 µM
- TGI [3]: > 100 µM
- TGI [4]: > 100 µM
- TGI [5]: > 100 µM
- TGI [6]: > 100 µM
- TGI [7]: > 100 µM
- TGI [8]: > 100 µM

SMILES: COc1cc2c(c(OC)c1OC)-c1ccc(SC)c(=O)cc1[C@@H](NC(=O)c1ccc(OC(C)=O)cc1)CC2
- TGI [1]: 0.0544 µM
- TGI [2]: 0.0528 µM
- TGI [3]: > 100 µM
- TGI [4]: 31 µM
- TGI [5]: > 100 µM
- TGI [6]: 0.0206 µM
- TGI [7]: 73 µM
- TGI [8]: 26.9 µM

SMILES: COC1/C(=C\C(=O)OC(C)(C)C)c2ccccc2N1C(C)=O (stereo unspecified)
- TGI [1]: > 100 µM
- TGI [9]: > 100 µM
- TGI [3]: > 100 µM
- TGI [4]: > 100 µM
- TGI [5]: > 100 µM
- TGI [6]: > 100 µM
- TGI [10]: > 100 µM
- TGI [7]: > 100 µM
- TGI [8]: > 100 µM

SMILES: Cc1cccc(C)c1NC(=O)CCCC(=O)CC(=O)/C=C/c1ccccc1
- TGI [1]: > 100 µM
- TGI [9]: > 100 µM
- TGI [3]: > 100 µM
- TGI [4]: > 100 µM
- TGI [5]: > 100 µM
- TGI [6]: > 100 µM
- TGI [10]: > 100 µM
- TGI [7]: > 100 µM
- TGI [8]: > 100 µM

SMILES: CN(C)CC(/C(Cc1ccccc1)=N\NC(=O)c1ccncc1)c1ccccc1 (stereo unspecified)
- TGI [9]: 42.1 µM
- TGI [2]: > 100 µM
- TGI [3]: 97.7 µM
- TGI [4]: > 100 µM
- TGI [10]: 51.6 µM
- TGI [8]: > 100 µM

SMILES: N#CC1=C(N)N=C(N2CCCCC2)C(C#N)C12Nc1ccccc1S2 (stereo unspecified)
- GI50 [1]: 17000 nM
- TGI [1]: > 100 µM
- GI50 [9]: 36400 nM
- TGI [9]: 79 µM
- GI50 [3]: 27.1 µM
- TGI [3]: 76.4 µM
- GI50 [4]: 38400 nM
- TGI [4]: > 100 µM
- GI50 [5]: > 100000 nM
- TGI [5]: > 100 µM
- GI50 [6]: 27000 nM
- TGI [6]: > 100 µM
- GI50 [10]: 84 µM
- TGI [10]: > 100 µM
- GI50 [7]: 40.8 µM
- TGI [7]: > 100 µM
- GI50 [8]: 16900 nM
- TGI [8]: 49.1 µM

SMILES: Nc1nc(Nc2ccc3c(c2)CC[C@@H](N2CCCC2)CC3)nn1-c1cc2c(nn1)-c1ccccc1CCC2
- GI50 [9]: 1930 nM
- TGI [9]: 3.89 µM
- GI50 [3]: 0.878 µM
- TGI [3]: 2.11 µM
- GI50 [4]: 1700 nM
- TGI [4]: 3.44 µM
- GI50 [5]: 820 nM
- TGI [5]: 3.63 µM
- GI50 [6]: 1310 nM
- TGI [6]: 2.82 µM
- GI50 [7]: 0.936 µM
- TGI [7]: 2.19 µM
- GI50 [8]: 1890 nM
- TGI [8]: 3.67 µM

SMILES: FC(F)(F)c1cccc(COCCN2CCN(Cc3cccc(C(F)(F)F)c3)CC2)c1
- TGI [1]: 34.5 µM
- TGI [2]: 35.8 µM
- TGI [3]: 29.1 µM
- TGI [4]: 28.3 µM
- TGI [5]: 41.9 µM
- TGI [6]: 34.7 µM
- TGI [7]: 24.9 µM
- TGI [8]: 28.6 µM

SMILES: COC(=O)NC/C=C\c1nc(CC/C=C\C(=O)OC2CC3CC(=O)O[C@H](/C=C/CC(C)C)C[C@H]4CCC(C)C(C[C@H](OC)CC(C2)O3)O4)co1 (stereo partly specified)
- GI50 [1]: 1420 nM
- TGI [1]: > 100 µM
- GI50 [9]: 20200 nM
- TGI [9]: > 100 µM
- GI50 [2]: 12.9 µM
- TGI [2]: > 100 µM
- GI50 [4]: < 10 nM
- TGI [4]: > 100 µM
- GI50 [6]: < 10 nM
- TGI [6]: 63.5 µM
- GI50 [7]: 25.4 µM
- TGI [7]: > 100 µM
- GI50 [8]: 63.5 nM
- TGI [8]: > 100 µM

SMILES: O=C(/C=C/C=C/c1ccccc1)CCc1ccccc1
- TGI [1]: > 100 µM
- TGI [9]: > 100 µM
- TGI [2]: > 100 µM
- TGI [4]: > 100 µM
- TGI [5]: 56.1 µM
- TGI [7]: > 100 µM
- TGI [8]: > 100 µM

SMILES: CCOc1cc2c(cnc3c4cc(OC)c(OC)cc4ccc23)cc1OC
- TGI [1]: > 100 µM
- TGI [9]: > 100 µM
- TGI [3]: > 100 µM
- TGI [4]: > 100 µM
- TGI [5]: > 100 µM
- TGI [6]: > 100 µM
- TGI [10]: > 100 µM
- TGI [7]: > 100 µM
- TGI [8]: > 100 µM

SMILES: C/C=C(\C)C(=O)N[C@H]1[C@@H](OC(C)=O)C[C@]2(C)C3CC[C@@]4(C)C(CC[C@@H]4C(C)N(C)C)C3CCC2[C@H]1O (stereo partly specified)
- GI50 [1]: 4480 nM
- TGI [1]: 18.3 µM
- GI50 [9]: 2300 nM
- TGI [9]: 6.38 µM
- GI50 [2]: 5.53 µM
- TGI [2]: 22 µM
- GI50 [3]: 5.74 µM
- TGI [3]: 17.9 µM
- GI50 [4]: 2630 nM
- TGI [4]: 9.44 µM
- GI50 [5]: 6190 nM
- TGI [5]: 33.8 µM
- GI50 [6]: 2180 nM
- TGI [6]: 5.8 µM
- GI50 [7]: 3.16 µM
- TGI [7]: 15.2 µM
- GI50 [8]: 1910 nM
- TGI [8]: 4.13 µM

SMILES: COC(=O)/C=C(C)/C=C/c1cc(C(C)=O)c(C)o1
- TGI [1]: > 100 µM
- TGI [9]: > 100 µM
- TGI [3]: > 100 µM
- TGI [4]: > 100 µM
- TGI [5]: > 100 µM
- TGI [6]: > 100 µM
- TGI [10]: > 100 µM
- TGI [7]: > 100 µM
- TGI [8]: > 100 µM
